Assay results: patent US20050176655A1, “Novel macrolide derivatives havaing effect of potentiating antifungal activity” (priority 2002, published 2005)

Key:
Assay in all cases: Paper disk method, enhancing action for activities of azole antifungal agents
Format in all cases: cell-based
[1] = system: Candida albicans ATCC 64548; conditions: 24 hours; for Inhibition activity (inhibition ring mm) C. albicans ATCC 64548 GYM / Transparency of the inhibition ring C. albicans ATCC 64548 GYM: miconazole 0.03 μg/ml; for Inhibition activity (inhibition ring mm) C. albicans ATCC 64548 GYF / Transparency of the inhibition ring C. albicans ATCC 64548 GYF: fluconazole 0.5 μg/ml
How it was run: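 GY agar (pH 6.0) seeded with C. albicans ATCC 64548 precultured in Waksman broth at 27° C for 40 hours, supplemented with sub-growth-inhibitory miconazole 0.03 μg/ml or fluconazole 0.5 μg/ml. Paper disk method; inhibition-zone diameter (mm) read after 24 hours, transparency graded A–E.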

[2] = system: fluconazole resistant Candida albicans ATCC 64550; conditions: 24 hours; for Inhibition activity (inhibition ring mm) C. albicans ATCC 64550 GYF / Transparency of the inhibition ring C. albicans ATCC 64550 GYF: fluconazole 30 μg/ml; for Inhibition activity (inhibition ring mm) C. albicans ATCC 64550 GYM / Transparency of the inhibition ring C. albicans ATCC 64550 GYM: miconazole 0.15 μg/ml
How it was run: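 Paper disk assay on GY agar (pH 6.0) seeded with Waksman-broth-grown C. albicans ATCC 64550 (0.1% inoculum). Medium was supplemented with sub-growth-inhibitory miconazole 0.15 μg/ml or fluconazole 30 μg/ml. After 24 h, inhibition-zone diameter was measured in mm and transparency graded A–E (A most transparent, E opaque).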

[3] = system: Aspergillus niger ATCC 6275; conditions: 48 hours; for Inhibition activity (inhibition ring mm) A. niger ATCC 6275 GYF / Transparency of the inhibition ring A. niger ATCC 6275 GYF: fluconazole 10 μg/ml; for Inhibition activity (inhibition ring mm) A. niger ATCC 6275 GYM / Transparency of the inhibition ring A. niger ATCC 6275 GYM: miconazole 0.1 μg/ml; for Inhibition activity (inhibition ring mm) A. niger ATCC 6275 GY / Transparency of the inhibition ring A. niger ATCC 6275 GY: GY medium (control, no azole)
How it was run: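 Paper-disk assay on A. niger ATCC 6275 spores (0.2%) seeded on GY agar pH 6.0. After 48 h, inhibition-zone diameter recorded in mm and transparency graded A (transparent) to E (opaque).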

| Structure (SMILES) | Inhibition activity (inhibition ring mm) C. albicans ATCC 64548 GYM ([1]; 10 μg/8 mm disk) [mm] | Transparency of the inhibition ring C. albicans ATCC 64548 GYM ([1]; 10 μg/8 mm disk) | Inhibition activity (inhibition ring mm) C. albicans ATCC 64548 GYF ([1]; 50 μg/8 mm disk) [mm] | Transparency of the inhibition ring C. albicans ATCC 64548 GYF ([1]; 50 μg/8 mm disk) | Inhibition activity (inhibition ring mm) C. albicans ATCC 64548 GYM ([1]; 50 μg/8 mm disk) [mm] | Transparency of the inhibition ring C. albicans ATCC 64548 GYM ([1]; 50 μg/8 mm disk) | Inhibition activity (inhibition ring mm) C. albicans ATCC 64550 GYF ([2]; 50 μg/8 mm disk) [mm] | Transparency of the inhibition ring C. albicans ATCC 64550 GYF ([2]; 50 μg/8 mm disk) | Inhibition activity (inhibition ring mm) C. albicans ATCC 64550 GYM ([2]; 50 μg/8 mm disk) [mm] | Transparency of the inhibition ring C. albicans ATCC 64550 GYM ([2]; 50 μg/8 mm disk) | Inhibition activity (inhibition ring mm) A. niger ATCC 6275 GYF ([3]; 10 μg/8 mm disk) [mm] | Transparency of the inhibition ring A. niger ATCC 6275 GYF ([3]; 10 μg/8 mm disk) | Inhibition activity (inhibition ring mm) A. niger ATCC 6275 GY ([3]; 50 μg/8 mm disk) [mm] | Transparency of the inhibition ring A. niger ATCC 6275 GY ([3]; 50 μg/8 mm disk) | Inhibition activity (inhibition ring mm) A. niger ATCC 6275 GYF ([3]; 50 μg/8 mm disk) [mm] | Transparency of the inhibition ring A. niger ATCC 6275 GYF ([3]; 50 μg/8 mm disk) | Inhibition activity (inhibition ring mm) A. niger ATCC 6275 GYM ([3]; 50 μg/8 mm disk) [mm] | Transparency of the inhibition ring A. niger ATCC 6275 GYM ([3]; 50 μg/8 mm disk) | further results |
| --- | --- | --- | --- | --- | --- | --- | --- | --- | --- | --- | --- | --- | --- | --- | --- | --- | --- | --- | --- |
| CCCCCC(=O)OC1C(C)OC(OC2C(C)C(=O)OC(C(C)(O)C(CC)OC(=O)CCCCC)C(C)C3=C(C)CC(C)(O3)C(OC3OC(C)CC(N(C)C)C3O)C2C)CC1(C)OC (stereo not drawn) [Compound 777, 4″,13-Di-O-hexanoyl-8,9-Anhydro-pseudo-erythromycin A 6,9-hemiketal] | 11 | D (Growth of test organism was inhibited 35% or more and 55% or less.) | 11 | D (Growth of test organism was inhibited 35% or more and 55% or less.) | 14 | A (Growth of test organism was inhibited 95% or more.) | 14 | A (Growth of test organism was inhibited 95% or more.) | 14 | A (Growth of test organism was inhibited 95% or more.) | 11 | E (Growth of test organism was inhibited 35% or less.) | 9 | E (Growth of test organism was inhibited 35% or less.) | 17 | D (Growth of test organism was inhibited 35% or more and 55% or less.) | 13 | B (Growth of test organism was inhibited 75% of more and 95% or less.) | Inhibition activity (inhibition ring mm) C. albicans ATCC 64550 GYF ([2]; 10 μg/8 mm disk): 11 mm; Transparency of the inhibition ring C. albicans ATCC 64550 GYF ([2]; 10 μg/8 mm disk): D (Growth of test organism was inhibited 35% or more and 55% or less.); Inhibition activity (inhibition ring mm) A. niger ATCC 6275 GYM ([3]; 10 μg/8 mm disk): 11 mm; Transparency of the inhibition ring A. niger ATCC 6275 GYM ([3]; 10 μg/8 mm disk): E (Growth of test organism was inhibited 35% or less.) |
| CCC(OC(=O)c1ccccc1)C(C)(O)C1OC(=O)C(C)C(OC2CC(C)(OC)C(O)C(C)O2)C(C)C(OC2OC(C)CC(N(C)C)C2O)C2(C)CC(C)=C(O2)C1C (stereo not drawn) [Compound 779, 13-O -benzoyl-8,9-Anhydro-pseudoerythro-mycin A 6,9-hemiketal] | 10 | E (Growth of test organism was inhibited 35% or less.) | 9 | D (Growth of test organism was inhibited 35% or more and 55% or less.) | 15 | A (Growth of test organism was inhibited 95% or more.) | 10 | E (Growth of test organism was inhibited 35% or less.) | 11 | D (Growth of test organism was inhibited 35% or more and 55% or less.) | 11 | E (Growth of test organism was inhibited 35% or less.) | 11 | E (Growth of test organism was inhibited 35% or less.) | 13 | D (Growth of test organism was inhibited 35% or more and 55% or less.) | 17 | E (Growth of test organism was inhibited 35% or less.) | – |
| CCC(=O)OC1C(C)OC(OC2C(C)C(=O)OC(C(C)(O)C(CC)OC(=O)CC)C(C)C3=C(C)CC(C)(O3)C(OC3OC(C)CC(N(C)C)C3O)C2C)CC1(C)OC (stereo not drawn) [Compound 776, 4″,13-Di-O-propionyl-8,9-Anhydro-pseudo-erythromycin A 6,9-hemiketal] | – | – | – | – | 11 | D (Growth of test organism was inhibited 35% or more and 55% or less.) | 9 | E (Growth of test organism was inhibited 35% or less.) | 11 | E (Growth of test organism was inhibited 35% or less.) | 16 | E (Growth of test organism was inhibited 35% or less.) | – | – | 16 | E (Growth of test organism was inhibited 35% or less.) | 20 | C (Growth of test organism was inhibited 55% or more and 75% or less.) | Inhibition activity (inhibition ring mm) C. albicans ATCC 64548 GYF ([1]; 100 μg/8 mm disk): 15 mm; Transparency of the inhibition ring C. albicans ATCC 64548 GYF ([1]; 100 μg/8 mm disk): E (Growth of test organism was inhibited 35% or less.) |
| CCC(=O)OC1C(C)OC(OC2C(C)C(=O)OC(C(C)(O)C(CC)OC(=O)CC)C(C)C3=C(C)CC(C)(O3)C(OC3OC(C)CC(N(C)C)C3OC(C)=O)C2C)CC1(C)OC (stereo not drawn) [Compound 771, 2′-O-acetyl-4″,13-Di-O-propionyl-8,9-Anhydro-pseudoerythromycin A 6,9-hemiketal] | – | – | – | – | 12 | D (Growth of test organism was inhibited 35% or more and 55% or less.) | 10 | E (Growth of test organism was inhibited 35% or less.) | 10 | A (Growth of test organism was inhibited 95% or more.) | 14 | E (Growth of test organism was inhibited 35% or less.) | – | – | 15 | E (Growth of test organism was inhibited 35% or less.) | 23 | E (Growth of test organism was inhibited 35% or less.) | – |
